Source: article PMC11870037 (Molecules, 2024)

Columns and labels:
Histamine H2 receptor = Histamine H2 receptor (Homo sapiens, UniProt P25021); assay: Histamine H2 receptor binding ([3H]tiotidine, Sf9 membranes); settings: Sf9 cells and membrane
adrenergic α1 receptor = assay: Adrenergic α1 receptor binding assay ([3H]prazosin); settings: rat cerebral cortex, means ± SEM of three experiments, read-out: Receptor Affinity Ki ± SEM α1
hERG potassium channel = target: T1, hERG potassium channel (Homo sapiens, UniProt Q12809); assay: hERG whole-cell patch clamp in HEK 293 cells; type: cell-based
T1 construct: expressed in transfected cells; host or cells: HEK 293

Dopamine D2 receptor = Dopamine D2 receptor (Rattus norvegicus, UniProt P61169); assay: Dopamine D2 receptor binding ([3H]spiperone); settings: rat striatum
mice = assay: Tail suspension test (TST); type: in vivo, mouse; settings: oral, immobility duration
[1] = target: T2, M4 muscarinic cholinergic receptor (Homo sapiens, UniProt P08173); assay: Muscarinic M4 receptor binding (lymphocyte suspension); settings: lymphocyte suspension and sections
T2 construct: blood lymphocytes were used at a concentration of 1 × 10⁶ cells; endogenous in cells; host or cells: peripheral blood lymphocytes

NMDA receptor = NMDA receptor (Rattus norvegicus, UniProt P35439); assay: NMDA receptor binding; settings: read-out: Ki NDMA
[2] = Acute toxicity, up-and-down procedure; settings: female, rat, in vivo; females, F344 rats, oral
Experimental: The hERG potassium channel blocking potential was evaluated using the whole-cell patch clamp method with hERG channels expressed in HEK 293 cells as the biological material. The Axopatch 200B amplifier and Digidata 1440A converter from Molecular Devices were integral to the setup. Electrodes crafted from borosilicate glass with filament by Sutter Instrument Company were used for recordings.
Command pulse protocols for voltage clamping and data acquisition were managed by pCLAMP […]
The bath solution contained 137 mM NaCl, 5.4 mM KCl, 10 mM glucose, 10 mM HEPES, and 2 mM CaCl2, with pH adjusted to 7.5 by NaOH. The pipet solution was composed of 140 mM KCl, 1 mM MgCl2, 5 mM EGTA, 10 mM HEPES, and 5 mM Na2ATP, with pH adjusted to 7.2 using KOH. The compound 11b was dissolved in a 50% (w/v) DMSO solution at an initial concentration of 1 mM and diluted to the test concentration with the bath solution. […]
number of surviving animals was recorded after 24 h of drug administration, and the percent mortality in each group was calculated. The LD50 values were calculated by using the soft AOT425statpgm […]
group containing 16 mice. […] The duration of immobility during the last 4 minutes of a total time of 6 minutes was recorded, and animals were judged to be immobile when they floated motionless, making only necessary movements to keep their heads above the water. […]

Dopamine D1 receptor = Dopamine D1 receptor (Rattus norvegicus, UniProt P18901); assay: Dopamine D1 receptor binding ([3H]-SCH23390); settings: rat striatum
Dopamine D1 receptor, sequence (P18901 whole entry): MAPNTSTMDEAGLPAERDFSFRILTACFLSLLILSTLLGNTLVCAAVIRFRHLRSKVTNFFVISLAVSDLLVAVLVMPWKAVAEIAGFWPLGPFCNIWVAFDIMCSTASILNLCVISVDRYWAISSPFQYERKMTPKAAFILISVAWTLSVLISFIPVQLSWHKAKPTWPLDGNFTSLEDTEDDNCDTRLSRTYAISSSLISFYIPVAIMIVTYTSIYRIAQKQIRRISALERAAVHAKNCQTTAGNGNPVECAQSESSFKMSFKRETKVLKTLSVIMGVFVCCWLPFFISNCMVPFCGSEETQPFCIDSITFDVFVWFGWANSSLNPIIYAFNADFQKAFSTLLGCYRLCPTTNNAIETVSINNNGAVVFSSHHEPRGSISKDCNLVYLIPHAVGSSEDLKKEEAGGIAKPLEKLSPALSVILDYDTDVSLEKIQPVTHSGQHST

Dopamine D2 receptor, sequence (P61169 1-415 isoform P61169-2): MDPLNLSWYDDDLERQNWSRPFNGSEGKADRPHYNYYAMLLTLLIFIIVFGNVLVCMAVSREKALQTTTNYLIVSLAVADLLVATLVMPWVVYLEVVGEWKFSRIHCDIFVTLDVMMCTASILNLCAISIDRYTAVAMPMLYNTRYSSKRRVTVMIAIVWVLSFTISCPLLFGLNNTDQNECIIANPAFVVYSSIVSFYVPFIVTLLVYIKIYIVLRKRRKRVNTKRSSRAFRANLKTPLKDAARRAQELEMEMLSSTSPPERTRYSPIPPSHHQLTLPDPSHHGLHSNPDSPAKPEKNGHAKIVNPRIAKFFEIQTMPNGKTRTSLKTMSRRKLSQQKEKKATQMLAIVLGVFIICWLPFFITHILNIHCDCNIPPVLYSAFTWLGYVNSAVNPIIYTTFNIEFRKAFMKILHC
Histamine H2 receptor, sequence (P25021 whole entry): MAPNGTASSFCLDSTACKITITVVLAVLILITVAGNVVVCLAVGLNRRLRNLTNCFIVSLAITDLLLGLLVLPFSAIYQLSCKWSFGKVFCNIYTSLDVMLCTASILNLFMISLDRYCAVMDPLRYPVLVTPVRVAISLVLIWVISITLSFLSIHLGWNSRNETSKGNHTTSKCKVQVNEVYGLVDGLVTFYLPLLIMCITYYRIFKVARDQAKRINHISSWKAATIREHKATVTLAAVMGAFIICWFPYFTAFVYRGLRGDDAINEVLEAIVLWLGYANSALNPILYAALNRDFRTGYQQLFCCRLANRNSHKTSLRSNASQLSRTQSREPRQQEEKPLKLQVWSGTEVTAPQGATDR
T2 sequence (P08173 whole entry): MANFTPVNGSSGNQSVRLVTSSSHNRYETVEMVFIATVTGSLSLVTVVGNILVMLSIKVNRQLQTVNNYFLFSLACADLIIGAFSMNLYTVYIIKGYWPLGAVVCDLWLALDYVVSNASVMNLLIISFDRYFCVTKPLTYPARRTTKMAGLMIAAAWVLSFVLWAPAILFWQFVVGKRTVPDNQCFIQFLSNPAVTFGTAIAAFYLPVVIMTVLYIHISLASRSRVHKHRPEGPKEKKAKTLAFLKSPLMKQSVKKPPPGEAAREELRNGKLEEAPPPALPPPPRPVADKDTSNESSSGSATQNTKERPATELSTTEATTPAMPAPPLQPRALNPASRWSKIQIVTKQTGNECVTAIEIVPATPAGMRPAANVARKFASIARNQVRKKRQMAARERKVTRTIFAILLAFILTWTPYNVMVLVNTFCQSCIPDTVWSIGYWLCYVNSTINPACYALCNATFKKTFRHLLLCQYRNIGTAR
T1 sequence (Q12809 whole entry): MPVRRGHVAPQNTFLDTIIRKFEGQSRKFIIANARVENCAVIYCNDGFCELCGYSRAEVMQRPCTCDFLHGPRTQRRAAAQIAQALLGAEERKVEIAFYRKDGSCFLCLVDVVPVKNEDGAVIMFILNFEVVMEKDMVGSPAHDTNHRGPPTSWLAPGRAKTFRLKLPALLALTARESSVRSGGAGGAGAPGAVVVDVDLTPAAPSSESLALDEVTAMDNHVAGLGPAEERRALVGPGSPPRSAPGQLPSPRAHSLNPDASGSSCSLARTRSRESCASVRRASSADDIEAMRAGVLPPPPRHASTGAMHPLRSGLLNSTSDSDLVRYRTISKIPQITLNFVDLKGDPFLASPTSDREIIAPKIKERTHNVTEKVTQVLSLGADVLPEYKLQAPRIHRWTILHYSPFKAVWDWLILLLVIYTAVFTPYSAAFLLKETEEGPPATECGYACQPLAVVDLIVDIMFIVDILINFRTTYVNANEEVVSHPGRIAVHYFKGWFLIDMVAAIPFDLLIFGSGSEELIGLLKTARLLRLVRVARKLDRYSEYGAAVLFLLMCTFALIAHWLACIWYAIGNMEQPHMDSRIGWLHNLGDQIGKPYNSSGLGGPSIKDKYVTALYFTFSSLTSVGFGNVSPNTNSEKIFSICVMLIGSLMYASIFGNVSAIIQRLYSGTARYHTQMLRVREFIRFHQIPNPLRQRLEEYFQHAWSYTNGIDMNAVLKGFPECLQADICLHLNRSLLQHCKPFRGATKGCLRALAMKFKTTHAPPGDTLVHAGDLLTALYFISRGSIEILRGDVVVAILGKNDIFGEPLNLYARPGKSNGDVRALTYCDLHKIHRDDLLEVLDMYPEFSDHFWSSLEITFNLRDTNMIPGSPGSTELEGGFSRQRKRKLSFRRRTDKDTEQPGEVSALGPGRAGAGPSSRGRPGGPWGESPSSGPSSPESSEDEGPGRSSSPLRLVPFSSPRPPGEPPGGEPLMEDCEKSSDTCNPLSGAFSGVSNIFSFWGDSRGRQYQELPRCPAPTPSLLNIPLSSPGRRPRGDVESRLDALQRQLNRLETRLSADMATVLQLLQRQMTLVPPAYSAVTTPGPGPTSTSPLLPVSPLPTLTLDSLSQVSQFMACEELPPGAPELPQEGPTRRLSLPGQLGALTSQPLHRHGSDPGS

CN(C)CCC(Oc1cccc2c1OCO2)c1ccc(OCCCN2CCCCC2)cc1.O=C(O)C(=O)O (stereo not drawn) [Compound 11b, 3-(benzo[d][1,3]dioxol-4-yloxy)-N,N-dimethyl-3-(4-(3-(piperidin-1-yl)propoxy)phenyl)propan-1-amine oxalate]
Ki (Histamine H2 receptor): > 1000 nM | Ki (adrenergic α1 receptor): 1170 ± 126 nM | IC50 (hERG potassium channel): 1000 ± 112 nM | Ki (Dopamine D2 receptor): > 1000 nM | minimal effective dose (MED) in TST (mice): 10 mg/kg | Ki [1]: > 1000 nM | Ki (NMDA receptor): > 1000 nM | LD50 at 24 h [2]: 512 mg/kg | Ki (Dopamine D1 receptor): > 1000 nM
